Measured values as given in US10238670B2, “9-aminomethyl minocycline compounds and methods of use thereof in urinary tract infection (UTI) treatment” (Paratek Pharmaceuticals, Inc., priority 2016, dated 2019).
≈ marks a conversion by molar mass, not a printed value.

Tests used:
Acinetobacter spp = test: In vitro MIC, 2010 surveillance isolates; assay type: cell-based; conditions: N America
MSSA = test: In vitro MIC, 2010 surveillance isolates; assay type: cell-based
MRSA = test: In vitro MIC, 2010 surveillance isolates; assay type: cell-based
MS CoNS = test: In vitro MIC, 2010 surveillance isolates; assay type: cell-based, Coagulase-Negative Staphylococcus
MR CoNS = test: In vitro MIC, 2010 surveillance isolates; assay type: cell-based, Coagulase-Negative Staphylococcus
E. faecalis VS = test: In vitro MIC, 2010 surveillance isolates; assay type: cell-based; conditions: for % R (resistance): CLSI breakpoints
E. faecalis VNS = test: In vitro MIC, 2010 surveillance isolates; assay type: cell-based; conditions: for % R (resistance): CLSI breakpoints
E. faecium VS = test: In vitro MIC, 2010 surveillance isolates; assay type: cell-based; conditions: for % R (resistance): CLSI breakpoints
E. faecium VNS = test: In vitro MIC, 2010 surveillance isolates; assay type: cell-based; conditions: for % R (resistance): CLSI breakpoints
human plasma protein = conditions: literature; cited from earlier work

SMILES: C[C@H]1c2cccc(O)c2C(=O)C2=C(O)[C@]3(O)C(=O)C(C(N)=O)=C(O)[C@@H](N(C)C)[C@@H]3[C@@H](O)[C@@H]21 [Doxycycline]
- % R (resistance) (Acinetobacter spp; CLSI breakpoints): 11.9%
- MIC90 (Acinetobacter spp; N=42): > 8 µg/mL
- % R (resistance) (MSSA; Asia/Pac, Eucast breakpoints): 1.7%
- MIC90 (MSSA; Asia/Pac, N=641): 1 µg/mL (≈ 2.25 µM)
- % R (resistance) (MSSA; Europe, Eucast breakpoints): 1.4%
- MIC90 (MSSA; Europe, N=2109): 0.12 µg/mL (≈ 0.27 µM)
- % R (resistance) (MSSA; L. Amer, CLSI breakpoints): 0%
- MIC90 (MSSA; L. Amer, N=590): 0.5 µg/mL (≈ 1.13 µM)
- % R (resistance) (MSSA; N America, CLSI breakpoints): ≤ 0.1%
- MIC90 (MSSA; N America, N=2373): 0.12 µg/mL (≈ 0.27 µM)
- % R (resistance) (MRSA; Asia/Pac, Eucast breakpoints): 48.6%
- MIC90 (MRSA; Asia/Pac, N=428): 8 µg/mL (≈ 18 µM)
- % R (resistance) (MRSA; Europe, Eucast breakpoints): 10.8%
- MIC90 (MRSA; Europe, N=750): 4 µg/mL (≈ 9 µM)
- % R (resistance) (MRSA; L. Amer, CLSI breakpoints): 0%
- MIC90 (MRSA; L. Amer, N=506): 0.25 µg/mL (≈ 0.563 µM)
- % R (resistance) (MRSA; N America, CLSI breakpoints): 0.1%
- MIC90 (MRSA; N America, N=2508): 0.5 µg/mL (≈ 1.13 µM)
- % R (resistance) (MS CoNS; Asia/Pac, Eucast breakpoints): 5.6%
- MIC90 (MS CoNS; Asia/Pac, N=18): 2 µg/mL (≈ 4.5 µM)
- % R (resistance) (MS CoNS; Europe, Eucast breakpoints): 3.2%
- MIC90 (MS CoNS; Europe, N=185): 1 µg/mL (≈ 2.25 µM)
- % R (resistance) (MS CoNS; L. Amer, CLSI breakpoints): 0%
- MIC90 (MS CoNS; L. Amer, N=67): 2 µg/mL (≈ 4.5 µM)
- % R (resistance) (MS CoNS; N America, CLSI breakpoints): 0.5%
- MIC90 (MS CoNS; N America, N=191): 1 µg/mL (≈ 2.25 µM)
- % R (resistance) (MR CoNS; Asia/Pac, Eucast breakpoints): 20.8%
- MIC90 (MR CoNS; Asia/Pac, N=77): 8 µg/mL (≈ 18 µM)
- % R (resistance) (MR CoNS; Europe, Eucast breakpoints): 8.8%
- MIC90 (MR CoNS; Europe, N=510): 2 µg/mL (≈ 4.5 µM)
- % R (resistance) (MR CoNS; L. Amer, CLSI breakpoints): 0.3%
- MIC90 (MR CoNS; L. Amer, N=301): 1 µg/mL (≈ 2.25 µM)
- % R (resistance) (MR CoNS; N America, CLSI breakpoints): 1.3%
- MIC90 (MR CoNS; N America, N=461): 2 µg/mL (≈ 4.5 µM)
- MIC90 (E. faecalis VS; Asia/Pac, N=214): > 8 µg/mL
- MIC90 (E. faecalis VS; Europe, N=669): > 8 µg/mL
- % R (resistance) (E. faecalis VS; L. Amer): 7.6%
- MIC90 (E. faecalis VS; L. Amer, N=290): 8 µg/mL (≈ 18 µM)
- % R (resistance) (E. faecalis VS; N America): 7.1%
- MIC90 (E. faecalis VS; N America, N=863): 8 µg/mL (≈ 18 µM)
- range of MICs (N <10, shown instead of MIC90) (E. faecalis VNS; Asia/Pac, N=1): 8
- range of MICs (N <10, shown instead of MIC90) (E. faecalis VNS; Europe, N=8): 0.5-8
- % R (resistance) (E. faecalis VNS; L. Amer): 0%
- range of MICs (N <10, shown instead of MIC90) (E. faecalis VNS; L. Amer, N=7): ≤0.06-4
- % R (resistance) (E. faecalis VNS; N America): 5.3%
- MIC90 (E. faecalis VNS; N America, N=38): 8 µg/mL (≈ 18 µM)
- MIC90 (E. faecium VS; Asia/Pac, N=106): > 8 µg/mL
- MIC90 (E. faecium VS; Europe, N=303): > 8 µg/mL
- % R (resistance) (E. faecium VS; L. Amer): 21.6%
- MIC90 (E. faecium VS; L. Amer, N=51): > 8 µg/mL
- % R (resistance) (E. faecium VS; N America): 31.3%
- MIC90 (E. faecium VS; N America, N=115): > 8 µg/mL
- MIC90 (E. faecium VNS; Asia/Pac, N=24): > 8 µg/mL
- MIC90 (E. faecium VNS; Europe, N=71): 8 µg/mL (≈ 18 µM)
- % R (resistance) (E. faecium VNS; L. Amer): 7.3%
- MIC90 (E. faecium VNS; L. Amer, N=41): 8 µg/mL (≈ 18 µM)
- % R (resistance) (E. faecium VNS; N America): 33.1%
- MIC90 (E. faecium VNS; N America, N=478): > 8 µg/mL
- human plasma protein binding, Mean (human plasma protein): 82-93%
